Patent US20130345218A1 (Vertex Pharmaceuticals Incorporated, priority 2010, published 2013)
pEC50, pIC50: −log10 of the molar value. Read-outs that look alike come from different tables or passages of the source.

Key:
[1] = tested on: influenza A virus (A/PR/8/34); assay: microbe, parasite or virus in culture; format: cell-based; conditions: mean IC50 (mean all), MDCK cells, A/PR/8/34, 72 hours, read-out: Flu, MDCK IC50
[2] = tested on: influenza A virus (A/PR/8/34) minus-strand viral RNA; assay: microbe, parasite or virus in culture; format: cell-based; conditions: mean EC50 (mean all), viral RNA by bDNA, read-out: bDNA EC50
[3] = Influenza A virus, PR/8, MDCK, 72 h

Compound	pIC50 [1, 3]	pEC50 ([2]; Influenza A virus, PR/8)	pIC50 [1]	pEC50 [2]
N#Cc1cnc(N[C@@H]2CCC[C@H](NC(=O)C3CC3)C2)nc1-c1c[nH]c2ncc(C(F)(F)F)cc12 (stereo in doubt) [Compound I-10, N-((1S,3R)-3-((5-cyano-4-(5-(trifluoromethyl)-1H-pyrrolo[2,3-b]pyridin-3-yl)pyrimidin-2-yl)amino)cyclohexyl)cyclopropanecarboxamide]	> 5.48	> 5.48	–	–
N#Cc1cnc(N[C@H]2CCC[C@@H](C(=O)O)C2)nc1-c1c[nH]c2ncc(Cl)cc12 [Compound I-3, (1R,3S)-3-((4-(5-chloro-1H-pyrrolo[2,3-b]pyridin-3-yl)-5-cyanopyrimidine-2-yl)amino)-cyclohexanecarboxylic acid]	> 5.48	> 5.48	–	–
O=C(N[C@@H]1CCC[C@H](Nc2nc(-c3c[nH]c4ncc(F)cc34)c(F)cc2F)C1)c1csc(Cl)c1 [Compound I-48, 5-chloro-N-((1R,3S)-3-((3,5-difluoro-6-(5-fluoro-1H-pyrrolo[2,3-b]pyridin-3-yl)pyridin-2-yl)amino)cyclohexyl)thiophene-3-carboxamide]	> 5.48	> 5.48	–	–
O=C(O)[C@H]1C2CCC(CC2)[C@@H]1Nc1cncc(-c2c[nH]c3ncc(F)cc23)n1 (mixture of isomers) [Compound I-38]	> 5.48	> 5.48	–	–
O=C(N[C@@H]1CCC[C@H](Nc2nc(-c3c[nH]c4ncc(F)cc34)c(F)cc2F)C1)N1CC[C@H](F)C1 [Compound I-24, (S)—N-((1R,3S)-3-((3,5-difluoro-6-(5-fluoro-1H-pyrrolo[2,3-b]pyridin-3-yl)pyridin-2-yl)-amino)cyclohexyl)-3-fluoropyrrolidine-1-carboxamide]	> 5.48	> 5.48	–	–
N#Cc1cc(F)c(N[C@H]2CCC[C@@H](NC(=O)N3CC[C@H](F)C3)C2)nc1-c1c[nH]c2ncc(F)cc12 [Compound I-43, (S)—N-((1R,3S)-3-((5-cyano-3-fluoro-6-(5-fluoro-1H-pyrrolo[2,3-b]pyridin-3-yl)pyridin-2-yl)amino)cyclohexyl)-3-fluoropyrrolidine-1-carboxamide]	> 5.48	> 5.48	–	–
NC(=O)c1cc(F)c(N[C@H]2CCC[C@@H](NC(=O)N3CCOCC3)C2)nc1-c1c[nH]c2ncc(F)cc12 [Compound I-13, N-((1R,3S)-3-((5-carbamoyl-3-fluoro-6-(5-fluoro-1H-pyrrolo[2,3-b]pyridin-3-yl)pyridin-2-yl)amino)cyclohexyl)morpholine-4-carboxamide]	> 5.48	> 5.48	–	–
COCC(=O)N[C@@H]1CCC[C@H](Nc2ncc(C#N)c(-c3c[nH]c4ncc(C(F)(F)F)cc34)n2)C1 [Compound I-9, N-((1R,3S)-3-((5-cyano-4-(5-(trifluoromethyl)-1H-pyrrolo[2,3-b]pyridin-3-yl)pyrimidin-2-yl)amino)cyclohexyl)-2-methoxyacetamide]	> 5.48	> 5.48	–	–
3-(2-(5-fluoro-1H-pyrrolo[2,3-b]pyridin-3-yl)pyridin-4-ylamino)bicyclo[2.2.2]octane-2-carboxylic acid [Compound I-49]	–	–	> 5.48	> 5.48
O=C(O)[C@@H]1C2CCC(CC2)[C@H]1Nc1nc(-c2c[nH]c3ncc(F)cc23)c(F)cc1F [Compound I-27]	–	–	–	> 5.48
N#Cc1cc(F)c(N[C@H]2CCC[C@@H](NC(=O)N3CCOCC3)C2)nc1-c1c[nH]c2ncc(F)cc12 [Compound I-12, N-((1R,3S)-3-((5-cyano-3-fluoro-6-(5-fluoro-1H-pyrrolo[2,3-b]pyridin-3-yl)pyridin-2-yl)amino)cyclohexyl)morpholine-4-carboxamide]	> 5.48	> 5.48	–	–
CC[C@]1(C(=O)O)CCCC[C@@H]1Nc1ncc(C#N)c(-c2c[nH]c3ncc(C(F)(F)F)cc23)n1 [Compound I-8, (1S,2S)-2-((5-cyano-4-(5-(trifluoromethyl)-1H-pyrrolo[2,3-b]pyridin-3-yl)pyrimidin-2-yl)amino)-1-ethylcyclohexanecarboxylic acid]	> 5.48	> 5.48	–	–
O=C(N[C@@H]1CCC[C@H](Nc2nc(-c3c[nH]c4ncc(F)cc34)c(C(F)(F)F)cc2F)C1)N1CCCC1 [Compound I-19]	> 5.48	> 5.48	–	–
O=C(O)[C@H]1C2CCC(CC2)[C@@H]1Nc1nc(Cl)nc(-c2c[nH]c3ncc(F)cc23)n1 (racemic) [Compound I-44, (+/−)-trans-3-(4-chloro-6-(5-fluoro-1H-pyrrolo[2,3-b]pyridin-3-yl)-1,3,5-triazin-2-ylamino)bicyclo[2.2.2]octane-2-carboxylic acid]	> 5.48	> 5.48	–	–
(+/−)-(exo)-7-((3,5-difluoro-6-(5-fluoro-1H-pyrrolo[2,3-b]pyridin-3-yl)pyridin-2-yl)amino)bicyclo[3.2.2]nonane-6-carboxylic acid [Compound I-36]	–	–	–	> 5.48
N#Cc1cc(F)c(N[C@H]2C3CCC(CC3)[C@@H]2C(=O)O)nc1-c1c[nH]c2ncc(F)cc12 (racemic) [Compound I-30]	> 5.48	> 5.48	–	–

Compound	pIC50 [1, 3]	pEC50 ([2]; Influenza A virus, PR/8)	pIC50 [1]	pEC50 [2]
CC1(C(=O)N[C@@H]2CCC[C@H](Nc3ncc(C#N)c(-c4c[nH]c5ncc(C(F)(F)F)cc45)n3)C2)CC1 [Compound I-6, N-((1R,3S)-3-((5-cyano-4-(5-(trifluoromethyl)-1H-pyrrolo[2,3-b]pyridin-3-yl)pyrimidin-2-yl)amino)cyclohexyl)-1-methylcyclopropanecarboxamide]	> 5.48	> 5.48	–	–
O=C(N[C@@H]1CCC[C@H](Nc2nc(-c3c[nH]c4ncc(F)cc34)c(F)cc2F)C1)N1CCC(F)(F)C1 [Compound I-25, N-((1R,3S)-3-((3,5-difluoro-6-(5-fluoro-1H-pyrrolo[2,3-b]pyridin-3-yl)pyridin-2-yl)-amino)cyclohexyl)-3,3-difluoropyrrolidine-1-carboxamide]	> 5.48	> 5.48	–	–
N#Cc1cc(F)c(N[C@H]2CCC[C@@H](NC(=O)N3CCOCC3)C2)nc1-c1c[nH]c2ncc(Cl)cc12 [Compound I-11, N-((1R,3S)-3-((6-(5-chloro-1H-pyrrolo[2,3-b]pyridin-3-yl)-5-cyano-3-fluoro-pyridin-2-yl)amino)cyclohexyl)morpholine-4-carboxamide]	> 5.48	> 5.48	–	–
O=C(O)[C@@H]1C2CCC(CC2)[C@H]1Nc1cnnc(-c2c[nH]c3ncc(F)cc23)n1 [Compound I-45]	≤ 5.48	< 5.48	–	–
O=C(O)[C@@H]1C2CCC(CC2)[C@H]1Nc1cc(C(F)(F)F)cc(-c2c[nH]c3ncc(F)cc23)n1 [Compound I-41]	> 5.48	> 5.48	–	–
C[C@@H]1CCN(C(=O)N[C@@H]2CCC[C@H](Nc3nc(-c4c[nH]c5ncc(F)cc45)c(F)cc3F)C2)C1 [Compound I-16, (R)—N-((1R,3S)-3-((3,5-difluoro-6-(5-fluoro-1H-pyrrolo[2,3-b]pyridin-3-yl)-pyridin-2-yl)amino)cyclohexyl)-3-methylpyrrolidine-1-carboxamide]	> 5.48	> 5.48	–	–
O=C(O)[C@@H]1C2CCC(CC2)[C@H]1Nc1nc(-c2c[nH]c3ncc(Cl)cc23)c(F)cc1F [Compound I-32]	> 5.48	> 5.48	–	–
N#Cc1cnc(N[C@H]2CCCC[C@@H]2C(=O)O)nc1-c1c[nH]c2ncc(C(F)(F)F)cc12 [Compound I-7, (1S,2S)-2-((5-cyano-4-(5-(trifluoromethyl)-1H-pyrrolo[2,3-b]pyridin-3-yl)pyrimidin-2-yl)amino)cyclohexanecarboxylic acid]	> 5.48	> 5.48	–	–
Cn1cnc(C(=O)N[C@@H]2CCC[C@H](Nc3nc(-c4c[nH]c5ncc(F)cc45)c(F)cc3F)C2)c1 [Compound I-18, N-((1R,3S)-3-((3,5-difluoro-6-(5-fluoro-1H-pyrrolo[2,3-b]pyridin-3-yl)pyridin-2-yl)-amino)cyclohexyl)-1-methyl-1H-imidazole-4-carboxamide]	> 5.48	> 5.48	–	–
N#Cc1cnc(N[C@H]2CCC[C@@H](C(=O)O)C2)nc1-c1c[nH]c2ncc(C(F)(F)F)cc12 [Compound I-4, (1R,3S)-3-((5-cyano-4-(5-(trifluoromethyl)-1H-pyrrolo[2,3-b]pyridin-3-yl)pyrimidin-2-yl)amino)cyclohexanecarboxylic acid]	> 5.48	> 5.48	–	–
O=C(N[C@H]1CCC[C@@H](Nc2nc(-c3c[nH]c4ncc(F)cc34)c(C(F)(F)F)cc2F)C1)N1CCOCC1 [Compound I-21]	> 5.48	> 5.48	–	–
O=C(O)[C@H]1C2CCC(CC2)[C@@H]1Nc1nc(-c2c[nH]c3ncc(F)cc23)ccc1F (racemic) [Compound I-35, (+/−) 3-(3-fluoro-6-(5-fluoro-1H-pyrrolo[2,3-b]pyridin-3-yl)pyridin-2-ylamino)bicyclo[2.2.2]octane-2-carboxylic acid]	> 5.48	> 5.48	–	–
O=C(N[C@@H]1CCC[C@H](Nc2nc(-c3c[nH]c4ncc(F)cc34)c(F)cc2F)C1)c1ccsc1 [Compound I-47, N-((1R,3S)-3-((3,5-difluoro-6-(5-fluoro-1H-pyrrolo[2,3-b]pyridin-3-yl)pyridin-2-yl)amino)cyclohexyl)thiophene-3-carboxamide]	> 5.48	> 5.48	–	–
CN(C)C(=O)N[C@@H]1CCC[C@H](Nc2nc(-c3c[nH]c4ncc(F)cc34)c(F)cc2F)C1 [Compound I-17, 3-((1R,3S)-3-((3,5-difluoro-6-(5-fluoro-1H-pyrrolo[2,3-b]pyridin-3-yl)pyridin-2-yl)amino)cyclohexyl)-1,1-dimethylurea]	> 5.48	> 5.48	–	–
N#Cc1cnc(N[C@H]2CCC[C@@H](C(=O)O)C2)nc1-c1c[nH]c2ncccc12 [Compound I-5]	≤ 5.48	–	–	–
